Reference: ChEMBL document CHEMBL1201862, “PubChem BioAssay data set” (2004)
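96-well plates; 48 h exposure; 5 concentrations. Endpoints by linear interpolation between flanking doses. Not reached: highest tested concentration assigned. GI50: concentration for 50% inhibition of growth.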 Calls of active or inactive are those of the source. Cut-off read from the data, not from the text of the source: active = GI50 up to about 1.1 µM and inactive = higher.

Legend:
Assay in all cases: inhibition of tumour cell growth, NCI panel, 48 h
[1] = test system: MDA-MB-231
[2] = test system: OVCAR-8
[3] = test system: UACC-62
[4] = test system: MDA-MB-435
[5] = test system: A549
[6] = test system: CCRF-CEM
[7] = test system: HOP-92
[8] = test system: ACHN
[9] = test system: T47D
[10] = test system: M14
[11] = test system: OVCAR-4
[12] = test system: OVCAR-3
[13] = test system: HCT-116
[14] = test system: EKVX
[15] = test system: NCI-H522
[16] = test system: RPMI-8226
[17] = test system: K562
[18] = test system: HL-60
[19] = test system: MCF7

## Cc1cc(C#N)c(Nc2c(C)cccc2[N+](=O)[O-])s1
[1]
  GI50: 24.7 µM (inactive)
[2]
  GI50: 42.9 µM (inactive)
[3]
  GI50: 37.9 µM (inactive)
[4]
  GI50: 61 µM (inactive)
[5]
  GI50: 46.3 µM (inactive)
[6]
  GI50: 16.6 µM (inactive)
[7]
  GI50: 24.3 µM (inactive)
[8]
  GI50: 49.7 µM (inactive)
[9]
  GI50: 12.4 µM (inactive)
[10]
  GI50: > 100 µM (inactive)
[11]
  GI50: 57.4 µM (inactive)
[12]
  GI50: 29.5 µM (inactive)
[13]
  GI50: 73.8 µM (inactive)
[14]
  GI50: 27.3 µM (inactive)
[15]
  GI50: 30.4 µM (inactive)
[16]
  GI50: > 100 µM (inactive)
[17]
  GI50: > 100 µM (inactive)

## C=C1c2ccccc2N(S(=O)(=O)c2ccc(C)cc2)C12CCCCC2
[2]
  GI50: > 100 µM (inactive)
[3]
  GI50: 62.2 µM (inactive)
[5]
  GI50: 63.4 µM (inactive)
[6]
  GI50: 25.2 µM (inactive)
[7]
  GI50: 4.27 µM (inactive)
[8]
  GI50: 57.4 µM (inactive)
[10]
  GI50: 94.4 µM (inactive)
[11]
  GI50: 53.1 µM (inactive)
[12]
  GI50: 77.6 µM (inactive)
[13]
  GI50: 33 µM (inactive)
[18]
  GI50: 19.8 µM (inactive)
[14]
  GI50: > 100 µM (inactive)
[15]
  GI50: 34.8 µM (inactive)
[16]
  GI50: 24.4 µM (inactive)
[17]
  GI50: 29 µM (inactive)

## COc1ccc(-c2c(C#N)c(S)n(NS(=O)(=O)c3ccccc3)c(=O)c2C#N)cc1
[1]
  GI50: 88.9 µM (inactive)
[2]
  GI50: 48.8 µM (inactive)
[3]
  GI50: 34.5 µM (inactive)
[4]
  GI50: 34.3 µM (inactive)
[5]
  GI50: 56.2 µM (inactive)
[6]
  GI50: 24.3 µM (inactive)
[8]
  GI50: 55.7 µM (inactive)
[9]
  GI50: 36.1 µM (inactive)
[10]
  GI50: 58.6 µM (inactive)
[11]
  GI50: 46.6 µM (inactive)
[19]
  GI50: 59.6 µM (inactive)
[12]
  GI50: 87.9 µM (inactive)
[13]
  GI50: 37.9 µM (inactive)
[18]
  GI50: 47.1 µM (inactive)
[15]
  GI50: 26.4 µM (inactive)
[16]
  GI50: 42.8 µM (inactive)
[17]
  GI50: 42.5 µM (inactive)

## CS(=O)(=O)c1nc(-c2cc3c(c(S(C)(=O)=O)n2)CCCC3)cc2c1CCCCC2
[1]
  GI50: 65.5 µM (inactive)
[2]
  GI50: 32.5 µM (inactive)
[3]
  GI50: > 100 µM (inactive)
[4]
  GI50: > 100 µM (inactive)
[5]
  GI50: > 100 µM (inactive)
[6]
  GI50: > 100 µM (inactive)
[8]
  GI50: > 100 µM (inactive)
[10]
  GI50: > 100 µM (inactive)
[11]
  GI50: > 100 µM (inactive)
[12]
  GI50: > 100 µM (inactive)
[13]
  GI50: > 100 µM (inactive)
[18]
  GI50: > 100 µM (inactive)
[14]
  GI50: > 100 µM (inactive)
[15]
  GI50: 21.1 µM (inactive)
[16]
  GI50: > 100 µM (inactive)

## O=C1c2ccccc2-c2c1c(-c1cccc(Br)c1)nc1ccc3ccccc3c21
[1]
  GI50: > 100 µM (inactive)
[2]
  GI50: > 100 µM (inactive)
[3]
  GI50: > 100 µM (inactive)
[4]
  GI50: > 100 µM (inactive)
[5]
  GI50: > 100 µM (inactive)
[6]
  GI50: > 100 µM (inactive)
[8]
  GI50: > 100 µM (inactive)
[9]
  GI50: > 100 µM (inactive)
[10]
  GI50: > 100 µM (inactive)
[11]
  GI50: > 100 µM (inactive)
[19]
  GI50: > 100 µM (inactive)
[12]
  GI50: > 100 µM (inactive)
[13]
  GI50: > 100 µM (inactive)
[14]
  GI50: > 100 µM (inactive)
[16]
  GI50: > 100 µM (inactive)
[17]
  GI50: > 100 µM (inactive)

## CSc1cc(Cl)c(C)cc1S(=O)(=O)NC(=O)NNc1cnc2ccccc2n1
[1]
  GI50: > 100 µM (inactive)
[2]
  GI50: > 100 µM (inactive)
[4]
  GI50: > 100 µM (inactive)
[5]
  GI50: > 100 µM (inactive)
[6]
  GI50: > 100 µM (inactive)
[8]
  GI50: > 100 µM (inactive)
[9]
  GI50: > 100 µM (inactive)
[10]
  GI50: > 100 µM (inactive)
[11]
  GI50: > 100 µM (inactive)
[19]
  GI50: > 100 µM (inactive)
[12]
  GI50: > 100 µM (inactive)
[13]
  GI50: > 100 µM (inactive)
[14]
  GI50: > 100 µM (inactive)
[15]
  GI50: > 100 µM (inactive)
[17]
  GI50: > 100 µM (inactive)

## CN(CCc1ccccn1)C(=S)N/N=C(\c1ccccc1)c1ccccn1
[2]
  GI50: < 0.01 µM (active)
[3]
  GI50: 0.23 µM (active)
[4]
  GI50: 0.573 µM (active)
[5]
  GI50: < 0.0404 µM (active)
[6]
  GI50: < 0.01 µM (active)
[7]
  GI50: 1.73 µM (inactive)
[8]
  GI50: < 0.01 µM (active)
[9]
  GI50: < 0.01 µM (active)
[10]
  GI50: < 0.0394 µM (active)
[11]
  GI50: 0.0334 µM (active)
[19]
  GI50: < 0.01 µM (active)
[12]
  GI50: < 0.01 µM (active)
[13]
  GI50: < 0.01 µM (active)
[18]
  GI50: < 0.01 µM (active)
[14]
  GI50: < 0.01 µM (active)
[15]
  GI50: < 0.01 µM (active)
[16]
  GI50: < 0.01 µM (active)
[17]
  GI50: < 0.01 µM (active)

## CN(C)CCc1ccc(Cl)cc1Cl
[2]
  GI50: > 100 µM (inactive)
[3]
  GI50: > 100 µM (inactive)
[5]
  GI50: > 100 µM (inactive)
[6]
  GI50: > 100 µM (inactive)
[7]
  GI50: 62.2 µM (inactive)
[8]
  GI50: > 100 µM (inactive)
[10]
  GI50: > 100 µM (inactive)
[11]
  GI50: > 100 µM (inactive)
[13]
  GI50: > 100 µM (inactive)
[18]
  GI50: > 100 µM (inactive)
[14]
  GI50: > 100 µM (inactive)
[15]
  GI50: > 100 µM (inactive)
[16]
  GI50: > 100 µM (inactive)
[17]
  GI50: > 100 µM (inactive)

## CCCCCCCCOCC(O)COC(C)C (stereo not given)
[2]
  GI50: 70 µM (inactive)
[3]
  GI50: 91.4 µM (inactive)
[5]
  GI50: 41.6 µM (inactive)
[6]
  GI50: 20.9 µM (inactive)
[7]
  GI50: 13.7 µM (inactive)
[8]
  GI50: 97.9 µM (inactive)
[10]
  GI50: 56.4 µM (inactive)
[11]
  GI50: 41.4 µM (inactive)
[12]
  GI50: 16.2 µM (inactive)
[13]
  GI50: 53.1 µM (inactive)
[18]
  GI50: 14.9 µM (inactive)
[16]
  GI50: 22.8 µM (inactive)
[17]
  GI50: 28.1 µM (inactive)
